Source: patent publication US8722849B2, “Polypeptides” (Novo Nordisk A/S, priority 2011, dated 2014)
Like-named read-outs stand apart in the source and are kept apart here. Starred links: 1 amine or outer side, 2 acyl side, 3 side chain; linkers in the order of their positions; H or OH if unused. Positions of bridges follow the written chain, without caps; N, C: chain ends. Residues, ends and D or L forms follow the SMILES beside them. *: point of attachment. C20 diacid = O=C(O)CCCCCCCCCCCCCCCCCCC(=O)*; γGlu = O=C(O)[C@H](CCC(=O)[*:2])N[*:1]

How the values were obtained:
[1] = target: T1, human amylin receptor (amylin 3(a) receptor: human calcitonin receptor + RAMP-3) (Homo sapiens, UniProt O60896+P30988); experiment: Assay (II)a functional CRE-luciferase assay, human amylin receptor; type: cell-based; settings: Table 2; BHK amylin 3(a)-receptor/CRE-luc cells
T1 construct: expressed in transfected cells; host or cells: BHK570
T1 sequence (P30988 25-474): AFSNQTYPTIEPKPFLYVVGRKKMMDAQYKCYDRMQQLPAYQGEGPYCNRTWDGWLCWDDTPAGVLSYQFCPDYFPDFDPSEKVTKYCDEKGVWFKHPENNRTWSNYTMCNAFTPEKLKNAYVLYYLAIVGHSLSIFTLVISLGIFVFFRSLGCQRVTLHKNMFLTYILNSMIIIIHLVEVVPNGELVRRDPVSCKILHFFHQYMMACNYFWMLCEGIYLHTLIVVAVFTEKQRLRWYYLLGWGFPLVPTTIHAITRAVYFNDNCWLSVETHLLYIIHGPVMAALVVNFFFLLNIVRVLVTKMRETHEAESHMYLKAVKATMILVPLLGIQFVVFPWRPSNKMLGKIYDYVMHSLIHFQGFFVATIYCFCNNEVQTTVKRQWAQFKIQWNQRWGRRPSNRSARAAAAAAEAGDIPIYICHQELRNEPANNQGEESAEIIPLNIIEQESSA
T1 sequence (O60896 24-148 partner): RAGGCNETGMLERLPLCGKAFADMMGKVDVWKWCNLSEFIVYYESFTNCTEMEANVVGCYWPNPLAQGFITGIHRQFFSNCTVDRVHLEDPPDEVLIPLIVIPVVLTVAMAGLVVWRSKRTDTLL

[2] = target: T2, human calcitonin receptor (Homo sapiens, UniProt P30988); experiment: Assay (II)a functional CRE-luciferase assay, human calcitonin receptor; type: cell-based; settings: Table 7; human calcitonin (CTa) receptor
T2 construct: expressed in transfected cells; host or cells: BHK570
T2 sequence (P30988 25-474): T1 sequence (P30988 25-474)

[3] = Assay (IV) determination of solubility; type: physicochemical
In short: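 Solubility is measured across pH 3.0–8.0 by mixing a ~500 nmol/ml aqueous polypeptide stock 1:1 with 100 mM glycylglycine or bistrispropane buffers. Samples stand 18 hours at room temperature, then are centrifuged and the soluble concentration is determined by HPLC.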

[4] = bistrispropane buffer, pH 6, pH 6.0, read-out: Solubility pH 6.0
[5] = bistrispropane buffer, pH 6.5, pH 6.5, read-out: Solubility pH 6.5
[6] = bistrispropane buffer, pH 7, pH 7.0, 18 hours at room temperature, Table 3, read-out: Solubility pH 7.0
[7] = bistrispropane buffer, pH 7, pH 7.0, read-out: Solubility pH 7.0
[8] = bistrispropane buffer, pH 7.5, pH 7.5, read-out: Solubility pH 7.5
[9] = bistrispropane buffer, pH 8, pH 8.0, read-out: Solubility pH 8.0
[10] = glycylglycine buffer, pH 3, pH 3.0, read-out: Solubility pH 3.0
[11] = glycylglycine buffer, pH 4, pH 4.0, 18 hours at room temperature, Table 2, read-out: Solubility pH 4.0
[12] = glycylglycine buffer, pH 4, pH 4.0, read-out: Solubility pH 4.0
[13] = glycylglycine buffer, pH 5, pH 5.0, read-out: Solubility pH 5.0

CC[C@H](C)[C@H](NC(=O)[C@@H]1CCCN1C(=O)CNC(=O)[C@H](Cc1ccccc1)NC(=O)[C@H](CC(N)=O)NC(=O)[C@H](CC(N)=O)NC(=O)[C@H](CO)NC(=O)[C@H](CO)NC(=O)[C@H](Cc1c[nH]cn1)NC(=O)[C@H](CCCNC(=N)N)NC(=O)[C@H](CC(C)C)NC(=O)[C@H](Cc1ccccc1)NC(=O)[C@H](CCC(=O)O)NC(=O)[C@H](C)NC(=O)[C@H](CC(C)C)NC(=O)[C@H](CCCNC(=N)N)NC(=O)[C@H](CCC(N)=O)NC(=O)[C@@H](NC(=O)[C@H](C)NC(=O)[C@@H]1CSSC[C@H](NC(=O)[C@H](CCCNC(=N)N)NC(=O)[C@H](CCC(=O)O)NC(=O)[C@H](CCC(=O)O)NC(=O)CC[C@H](NC(=O)CCCCCCCCCCCCCCCCCCC(=O)O)C(=O)O)C(=O)N[C@@H](CC(N)=O)C(=O)N[C@@H]([C@@H](C)O)C(=O)N[C@@H](C)C(=O)N[C@@H]([C@@H](C)O)C(=O)N1)[C@@H](C)O)C(=O)N[C@@H](CC(C)C)C(=O)N1CCC[C@H]1C(=O)N1CCC[C@H]1C(=O)N[C@H](C(=O)N[C@@H](CC(N)=O)C(=O)N[C@H](C(=O)NCC(=O)N[C@@H](CO)C(=O)N[C@@H](CC(N)=O)C(=O)N[C@H](C(=O)N1CCC[C@H]1C(N)=O)[C@@H](C)O)C(C)C)[C@@H](C)O [Example 155, N-alpha-[(S)-4-Carboxy-4-(19-carboxynonadecanoylamino)butyryl]-Glu-Glu-[Arg1,Glu14,Arg17,Pro37]-pramlintide] ({C20 diacid-γGlu}-EERCNTATCATQRLAEFLRHSSNNFGPILPPTNVGSNTP-NH2; disulfide 4-9 (inferred); C-terminus assumed)
EC50 [1]: 0.313 nM | EC50 [2]: 0.526 nM | solubility at 18 h [3, 4]: > 200 µM | solubility at 18 h [3, 5]: > 200 µM | solubility at 18 h [3, 6]: > 200 µM | solubility at 18 h [3, 7]: > 200 µM | solubility at 18 h [3, 8]: > 200 µM | solubility at 18 h [3, 9]: > 200 µM | solubility at 18 h [3, 10]: > 200 µM | solubility at 18 h [3, 11]: > 200 µM | solubility at 18 h [3, 12]: > 200 µM | solubility at 18 h [3, 13]: > 200 µM

CC[C@H](C)[C@H](NC(=O)[C@@H]1CCCN1C(=O)CNC(=O)[C@H](Cc1ccccc1)NC(=O)[C@H](CC(N)=O)NC(=O)[C@H](CCC(N)=O)NC(=O)[C@H](CO)NC(=O)[C@H](CO)NC(=O)[C@H](Cc1c[nH]cn1)NC(=O)[C@H](CCCNC(=N)N)NC(=O)[C@H](CC(C)C)NC(=O)[C@H](Cc1ccccc1)NC(=O)[C@H](CCC(=O)O)NC(=O)[C@H](C)NC(=O)[C@H](CC(C)C)NC(=O)[C@H](CCCNC(=N)N)NC(=O)[C@H](CCC(N)=O)NC(=O)[C@@H](NC(=O)[C@H](C)NC(=O)[C@@H]1CSSC[C@H](NC(=O)[C@H](CCCNC(=N)N)NC(=O)[C@H](CCC(=O)O)NC(=O)[C@H](CCC(=O)O)NC(=O)CC[C@H](NC(=O)CCCCCCCCCCCCCCCCCCC(=O)O)C(=O)O)C(=O)N[C@@H](CC(N)=O)C(=O)N[C@@H]([C@@H](C)O)C(=O)N[C@@H](C)C(=O)N[C@@H]([C@@H](C)O)C(=O)N1)[C@@H](C)O)C(=O)N[C@@H](CC(C)C)C(=O)N1CCC[C@H]1C(=O)N1CCC[C@H]1C(=O)N[C@H](C(=O)N[C@@H](CC(N)=O)C(=O)N[C@H](C(=O)NCC(=O)N[C@@H](CO)C(=O)N[C@@H](CC(N)=O)C(=O)N[C@H](C(=O)N1CCC[C@H]1C(N)=O)[C@@H](C)O)C(C)C)[C@@H](C)O [Example 157, N-alpha-[(S)-4-Carboxy-4-(19-carboxynonadecanoylamino)butyryl]-Glu-Glu-[Arg1,Glu14,Arg17,Gln21,Pro37]-pramlintide] ({C20 diacid-γGlu}-EERCNTATCATQRLAEFLRHSSQNFGPILPPTNVGSNTP-NH2; disulfide 4-9 (inferred); C-terminus assumed)
EC50 [1]: 0.465 nM | EC50 [2]: 0.547 nM | solubility at 18 h [3, 4]: > 200 µM | solubility at 18 h [3, 5]: > 200 µM | solubility at 18 h [3, 6]: > 200 µM | solubility at 18 h [3, 7]: > 200 µM | solubility at 18 h [3, 8]: > 200 µM | solubility at 18 h [3, 9]: > 200 µM | solubility at 18 h [3, 10]: > 200 µM | solubility at 18 h [3, 11]: > 200 µM | solubility at 18 h [3, 12]: > 200 µM | solubility at 18 h [3, 13]: > 200 µM

CC[C@H](C)[C@H](NC(=O)[C@@H]1CCCN1C(=O)CNC(=O)[C@H](Cc1ccccc1)NC(=O)[C@H](CC(N)=O)NC(=O)[C@H](CCC(N)=O)NC(=O)[C@H](CO)NC(=O)[C@H](CO)NC(=O)[C@H](Cc1c[nH]cn1)NC(=O)[C@H](CCCNC(=N)N)NC(=O)[C@H](CC(C)C)NC(=O)[C@H](Cc1ccccc1)NC(=O)[C@H](CCC(=O)O)NC(=O)[C@H](C)NC(=O)[C@H](CC(C)C)NC(=O)[C@H](CCCNC(=N)N)NC(=O)[C@H](CCC(N)=O)NC(=O)[C@@H](NC(=O)[C@H](C)NC(=O)[C@@H]1CSSC[C@H](NC(=O)[C@H](CCCNC(=N)N)NC(=O)[C@H](CCC(=O)O)NC(=O)[C@H](CCC(=O)O)NC(=O)CC[C@H](NC(=O)CCCCCCCCCCCCCCCCCCC(=O)O)C(=O)O)C(=O)N[C@@H](CC(N)=O)C(=O)N[C@@H]([C@@H](C)O)C(=O)N[C@@H](C)C(=O)N[C@@H]([C@@H](C)O)C(=O)N1)[C@@H](C)O)C(=O)N[C@@H](CC(C)C)C(=O)N1CCC[C@H]1C(=O)N1CCC[C@H]1C(=O)N[C@H](C(=O)N[C@@H](CC(N)=O)C(=O)N[C@H](C(=O)NCC(=O)N[C@@H](CO)C(=O)N[C@@H](CCC(N)=O)C(=O)N[C@H](C(=O)N1CCC[C@H]1C(N)=O)[C@@H](C)O)C(C)C)[C@@H](C)O [Example 158, N-alpha-[(S)-4-Carboxy-4-(19-carboxynonadecanoylamino)butyryl]-Glu-Glu-[Arg1,Glu14,Arg17,Gln21,Gln35,Pro37]-pramlintide] ({C20 diacid-γGlu}-EERCNTATCATQRLAEFLRHSSQNFGPILPPTNVGSQTP-NH2; disulfide 4-9 (inferred))
EC50 [1]: 1.13 nM | EC50 [2]: 1.19 nM | solubility at 18 h [3, 4]: > 200 µM | solubility at 18 h [3, 5]: > 200 µM | solubility at 18 h [3, 6]: > 200 µM | solubility at 18 h [3, 7]: > 200 µM | solubility at 18 h [3, 8]: > 200 µM | solubility at 18 h [3, 9]: > 200 µM | solubility at 18 h [3, 10]: > 200 µM | solubility at 18 h [3, 11]: > 200 µM | solubility at 18 h [3, 12]: > 200 µM | solubility at 18 h [3, 13]: > 200 µM
